Laboratory results published in paper PMC7822874, “Chemoprotective antimalarials identified through quantitative high-throughput screening of Plasmodium blood and liver stage parasites” (Scientific Reports, 2021).
“And” between values parts separate entries of the source, which are not always exact repeats. Equal values may be shown once. Read-outs that look alike come from different tables or passages of the source.

Key:
[1] = system: P. falciparum Dd2 (clone B2) asexual blood stage parasites; experiment: P. falciparum Dd2 asexual blood stage SYBR Green-I 72 h proliferation assay (qHTS); format: cell-based, Plasmodium falciparum; conditions: Plasmodium falciparum
[2] = system: P. falciparum Dd2 Cytb G131S; experiment: SYBR Green ABS proliferation assay, NCGC00374598 selected clone C11; format: cell-based, Plasmodium falciparum; conditions: for AC50: Plasmodium falciparum
Method in brief: (§1)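 Proliferation of cytb-mutant Dd2 clones was measured by SYBR Green-I fluorescence at 72 h, normalized to controls.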

[3] = system: P. falciparum Dd2 Cytb V259L; experiment: SYBR Green ABS proliferation assay, NCGC00473217 selected clone F06; format: cell-based, Plasmodium falciparum; parameters: log AC50, mean: unit: log M; conditions: for AC50: Plasmodium falciparum
Method in brief: as §1

[4] = system: P. falciparum Dd2 Cytb A122D; experiment: SYBR Green ABS proliferation assay, NCGC00473217 selected clone F12; format: cell-based, Plasmodium falciparum; parameters: log AC50, mean: unit: Log[M]; conditions: for AC50: Plasmodium falciparum
Method in brief: as §1

[5] = system: P. falciparum Dd2 Cytb F123L; experiment: SYBR Green ABS proliferation assay, NCGC00473217 selected clone G08; format: cell-based, Plasmodium falciparum; parameters: log AC50, mean: unit: log10(M); conditions: for AC50: Plasmodium falciparum
Method in brief: as §1

[6] = system: P. berghei-ANKA-GFP-LucCON liver stage parasites in HepG2-A16-CD81EGFP cells; experiment: P. berghei liver stage Pb-Luc assay, Method 1 (UCSD, 1536-well); format: cell-based, Plasmodium berghei; conditions: Method 1; Decrease = decreasing P. berghei viability with dose, Increase = increasing signal, Inactive = no dose response
[7] = system: luciferase-expressing P. berghei liver stage parasites in HepG2 cells; experiment: Inhibition of liver-stage development assay (ILSDA), Method 2 (WRAIR, 96-well); format: cell-based, Plasmodium berghei; conditions: for AC50: Plasmodium berghei, HepG2, Method 2; for Activity direction (Decrease / Inactive): P. berghei liver stage, Method 2, dose response
[8] = system: Plasmodium falciparum Dd2 asexual blood stage parasites; experiment: microbe, parasite or virus in culture; parameters: species or system Plasmodium falciparum Dd2 in human erythrocytes; single determination (one 11-point concentration-response curve); conditions: Plasmodium falciparum, DD2, Erythrocyte, 72 h; read-out: AC50
[9] = system: T1, Plasmodium falciparum Dd2-attB (parental line), asexual blood stages; experiment: microbe, parasite or virus in culture; parameters: replicate k of 3 (each line is one of three independent assays; the three lines of one compound and parasite line follow each other); conditions: n = 1; for Individual replicates / Log AC50 (M): 72 h; for AC50: Plasmodium falciparum, DD2, 72 h, read-out: Individual replicates / Log AC50 (converted)
T1 construct: Dd2-attB, the isogenic parental line
Method in brief: (§2)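 Statistics: two-sided Student's t-test between parental and transgenic values, from three independent assays. The transgene encodes a fumarate-dependent DHODH from yeast, independent of the parasite mETC.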

[10] = system: T2, Plasmodium falciparum Dd2-attB-ScDHODH (transgenic line expressing yeast DHODH), asexual blood stages; experiment: organism not typed; parameters: replicate k of 3 (each line is one of three independent assays; the three lines of one compound and parasite line follow each other); conditions: 72 h, n = 1
T2 construct: Dd2-attB-ScDHODH, the transgenic line that expresses yeast DHODH
Method in brief: as §2

[11] = DD2, 72 h, SYBR Green 72 h, WT Dd2-B2, read-out: AC50 Log[M] ± SD, Dd2-B2 (parental line) (converted)
[12] = DD2, Suppl Table 6, read-out: AC50 (mM), WT (Dd2-B2)
[13] = DD2, NCGC00374598 selected clone, read-out: AC50 Log[M] ± SD, Cytb G131S (converted)
[14] = DD2, Suppl Table 6, read-out: AC50 (mM), Dd2 Cytb G131S
[15] = DD2, NCGC00473217 selected clone, read-out: AC50 Log[M] ± SD, Cytb V259L (converted)
[16] = DD2, Suppl Table 6, read-out: AC50 (mM), Dd2 Cytb V259L
[17] = DD2, NCGC00473217 selected clone, read-out: AC50 Log[M] ± SD, Cytb A122D (converted)
[18] = DD2, Suppl Table 6, read-out: AC50 (mM), Dd2 Cytb A122D
[19] = DD2, NCGC00473217 selected clone, read-out: AC50 Log[M] ± SD, Cytb F123L (converted)
[20] = DD2, Suppl Table 6, read-out: AC50 (mM), Dd2 Cytb F123L
[21] = DD2, cytochrome b mutant line, second value triple, c6, […], read-out: log AC50, mean (converted)
[22] = DD2, cytochrome b mutant line, third value triple, c9, […], read-out: log AC50, mean (converted)
[23] = DD2, cytochrome b mutant line, fourth value triple, c12, […], read-out: log AC50, mean (converted)
[24] = DD2, cytochrome b mutant line, fifth value triple, c15, […], read-out: log AC50, mean (converted)

O=C1C(O)=C([C@H]2CC[C@H](c3ccc(Cl)cc3)CC2)C(=O)c2ccccc21 [Atovaquone, atovaquone, reference compound]
AC50 [1, 11]: 3.31e-09 M | AC50 [1, 12]: 3.3e-09 M | potency in G131S mutant lines compared to parental line [2]: potency was not compromised | AC50 [2, 13]: 2.19e-09 M | AC50 [2, 14]: 2.2e-09 M | susceptibility of V259L variant compared to parental line [3]: significantly less susceptible | AC50 [3, 15]: 2.34e-08 M | AC50 [3, 16]: 2.34e-08 M | susceptibility of A122D mutant compared to parental line [4]: significantly more susceptible | AC50 [4, 17]: 5.5e-10 M | AC50 [4, 18]: 5.5e-10 M | susceptibility of F123L mutant compared to parental line [5]: significantly more susceptible | AC50 [5, 19]: 8.71e-10 M | AC50 [5, 20]: 9e-10 M

Cc1cc(Nc2ccc(S(F)(F)(F)(F)F)cc2)n2nc(C(C)(F)F)nc2n1 [DSM265, reference compound]
AC50 [1, 11]: 3.8e-08 M | AC50 [1, 12]: 3.8e-08 M | AC50 [2, 13]: 2.4e-08 M | AC50 [2, 14]: 2.4e-08 M | susceptibility of V259L variant compared to parental line [3]: unchanged | AC50 [3, 15]: 3.16e-08 M | AC50 [3, 16]: 3.16e-08 M | susceptibility of A122D mutant compared to parental line [4]: significantly more susceptible | AC50 [4, 17]: 1.41e-08 M | AC50 [4, 18]: 1.41e-08 M | susceptibility of F123L mutant compared to parental line [5]: significantly more susceptible | AC50 [5, 19]: 1.95e-08 M | AC50 [5, 20]: 1.95e-08 M

CC(=O)Nc1ccc(CN2CCc3nc(C(C)C)nc(-c4ccc(Cl)cc4)c3CC2)cc1 [NCGC00374598-01]
AC50 [2, 21]: 4.91e-06 M | AC50 [3, 22]: 4.91e-06 M | AC50 [4, 23]: 3.35e-06 M | AC50 [5, 24]: 7.78e-07 M | Max Resp (signal direction of the dose response) [6]: Decrease | Max Resp (signal direction of the dose response) ([7]; Method 2, Decrease = decreasing P. berghei viability with dose, Increase = increasing signal, Inactive = no dose response): Decrease | AC50 ([7]; Hill fit, 50% of maximum activity response, read-out: AC50): 501 nM | AC50 ([7]; log10 of molar AC50 from Hill fit, read-out: Log AC50 (converted)): 501 nM | AC50 [8]: 2.66 µM | Individual replicates / Log AC50 (M) [9]: -5.6986 Log AC50 (M) and -5.7986 Log AC50 (M) | AC50 [9]: 1260 nM | Individual replicates / Log AC50 (M) [10]: -5.1486 Log AC50 (M) and -4.9986 Log AC50 (M) and -5.3986 Log AC50 (M)

O=c1[nH]c(N2CCOCC2)nc2c1CCN(Cc1cc(F)c(F)cc1F)CC2 [NCGC00440659-01]
AC50 [2, 21]: 1.14e-05 M | AC50 [3, 22]: 1.81e-05 M | AC50 [4, 23]: 1.74e-05 M | AC50 [5, 24]: 4.91e-06 M | Activity direction (Decrease / Inactive) [7]: Inactive | AC50 [8]: 15 µM

c1ccc(OCCNc2nc(-c3cccnc3)nc3c2CCNCC3)cc1 [NCGC00443183-01]
AC50 [2, 21]: 6.93e-06 M | AC50 [3, 22]: 5.73e-06 M | AC50 [4, 23]: 7.21e-06 M | AC50 [5, 24]: 5.11e-06 M | Activity direction (Decrease / Inactive) [7]: Inactive

O=[S+]([O-])(c1cccs1)N1CCc2nc(C3CC3)nc(-c3ccc(Cl)cc3)c2CC1 [NCGC00476969-01]
AC50 [2, 21]: 7.78e-06 M | AC50 [3, 22]: 1.19e-05 M | AC50 [4, 23]: 1.38e-05 M | AC50 [5, 24]: 1.23e-05 M | Activity direction (Decrease / Inactive) [7]: Inactive

CCc1nc2c(c(-c3ccc(O)cc3)n1)CCN(Cc1ccc(OC(F)(F)F)cc1)CC2 [NCGC00480301-01]
AC50 [2, 21]: 5.11e-06 M | AC50 [3, 22]: 5.73e-06 M | AC50 [4, 23]: 6.18e-06 M | AC50 [5, 24]: 7.78e-06 M | Activity direction (Decrease / Inactive) [7]: Inactive | AC50 [8]: 1.5 µM

CC(C)c1nc2c(c(-c3ccc(O)cc3)n1)CCN(Cc1cccc3ccccc13)CC2 [NCGC00480323-01]
AC50 [2, 21]: 4.06e-06 M | AC50 [3, 22]: 4.55e-06 M | AC50 [4, 23]: 4.73e-06 M | AC50 [5, 24]: 4.22e-06 M | Activity direction (Decrease / Inactive) [7]: Inactive

Oc1ccc(-c2nc(C3CC3)nc3c2CCN(CC2CCCCC2)CC3)cc1 [NCGC00480361-01]
AC50 [2, 21]: 6.43e-06 M | log AC50, mean ([3]; cytochrome b mutant line, third value triple, c9, […]): -5.075 | log AC50, mean ([4]; cytochrome b mutant line, fourth value triple, c12, […]): -5.009 | log AC50, mean ([5]; cytochrome b mutant line, fifth value triple, c15, […]): -5.309 | Activity direction (Decrease / Inactive) [7]: Inactive | AC50 [8]: 4.73 µM | Individual replicates / Log AC50 (M) [9]: -5.4486 Log AC50 (M) and -5.3986 Log AC50 (M) | AC50 [9]: 4480 nM | Individual replicates / Log AC50 (M) [10]: -5.2486 Log AC50 (M) and -5.1486 Log AC50 (M)
